The subject of one data set is 3T3-L1. The data set can be described thus: Insulin sensitizing activity in mouse 3T3-L1 cells assessed as downregulation of PTP1B gene expression at 1 uM measured after 48 hrs by RT-qPCR analysis. It is filed as functional, cell-based. Background: Quantitative PCR measures a nucleic acid by following its amplification.
A short description of data set [1]: Toxicity in male db/db mouse model assessed as body weight gain at 2.5 to 10 mg/kg/day, ip administered for 4 weeks. The settings on record: in vivo, 672 h, dose 2.5-10 mg/kg/day. It counts as organism-based.
The nature of data set [2]: Toxicity in male db/db mouse model assessed as increase in brown adipose tissue weight at 2.5 to 10 mg/kg/day, ip administered for 4 weeks. It counts as organism-based. The settings on record: in vivo, 672 h, dose 2.5-10 mg/kg/day.
Data set [3] deals with Mus musculus. In words: Downregulation of PPAR-gamma protein expression in male db/db mouse white adipose tissue at 2.5 to 10 mg/kg/day, ip administered for 4 weeks by Western blotting analysis. It is filed as functional, organism-based. The settings on record: dose 2.5-10 mg/kg/day. In general terms: Immunoblotting shows a protein as a band on a membrane.
In data set [4] the test system is Mus musculus. The data set can be described thus: Effect on pRb protein expression in male db/db mouse white adipose tissue at 2.5 to 10 mg/kg/day, ip administered for 4 weeks by Western blotting analysis. The settings on record: dose 2.5-10 mg/kg/day. It counts as functional, organism-based.
For data set [5], the system named is Mus musculus. The data set can be described thus: Antidiabetic activity in male db/db mouse model assessed as downregulation of CD36 gene expression in white adipose tissue at 2.5 to 10 mg/kg/day, ip administered for 4 weeks by RT-qPCR analysis. The settings on record: dose 2.5-10 mg/kg/day. It counts as functional, organism-based.
For data set [6], the system named is Mus musculus. The data set can be described thus: Antidiabetic activity in male db/db mouse model assessed as downregulation of FASN gene expression in white adipose tissue at 2.5 to 10 mg/kg/day, ip administered for 4 weeks by RT-qPCR analysis. It is filed as functional, organism-based. The settings on record: dose 2.5-10 mg/kg/day.
The test system of data set [7] is Mus musculus. The data set can be described thus: Antidiabetic activity in male db/db mouse model assessed as downregulation of PTP1B gene expression in liver at 2.5 to 10 mg/kg/day, ip administered for 4 weeks by RT-qPCR analysis. It is filed as functional, organism-based. The settings on record: dose 2.5-10 mg/kg/day.

Experimental findings from ChEMBL document CHEMBL6087454, “Identification of Novel Organo-Se BTSA-Based Derivatives as Potent, Reversible, and Selective PPARγ Covalent Modulators for Antidiabetic Drug Discovery” (J Med Chem, 2025) are described below.

The source made the active and inactive calls. The calls are words filed in the database; no cut-off is given here.

For `Cc1ccc(S(=O)(=O)Oc2ccc(S3(=O)=N[Se]c4cc(OS(=O)(=O)c5ccc(C)cc5)ccc43)cc2)cc1` (stereo not drawn), the result with 3T3-L1, in the data set with Mus musculus [3], with Mus musculus [5], with Mus musculus [6] and in the data set on Mus musculus [7] was Active. For the same compound, the Activity entry in data set [1] and in data set [2] was “Non-toxic” in each case. In addition, the outcome in the data set on Mus musculus [4] was inactive.
